Results taken from patent US20130158014A1, “METHOD FOR TREATING DISEASES ASSOCIATED WITH ALTERATIONS IN CELLULAR INTEGRITY USING RHO KINASE INHIBITOR COMPOUNDS” (priority 2008, published 2013).
Like-named read-outs stand apart in the source and are kept apart here. Blank lines part the entries; values can stand above or below the compound they belong to.

Experiments:
p70S6K = target: T1, p70S6K (Homo sapiens, UniProt P23443, T412E); test: p70S6K inhibition assay (IMAP); format: biochemical; details: average
T1 construct: purchased Upstate Chemicon 14-486
T1 sequence (P23443 1-421 T412E limits assumed): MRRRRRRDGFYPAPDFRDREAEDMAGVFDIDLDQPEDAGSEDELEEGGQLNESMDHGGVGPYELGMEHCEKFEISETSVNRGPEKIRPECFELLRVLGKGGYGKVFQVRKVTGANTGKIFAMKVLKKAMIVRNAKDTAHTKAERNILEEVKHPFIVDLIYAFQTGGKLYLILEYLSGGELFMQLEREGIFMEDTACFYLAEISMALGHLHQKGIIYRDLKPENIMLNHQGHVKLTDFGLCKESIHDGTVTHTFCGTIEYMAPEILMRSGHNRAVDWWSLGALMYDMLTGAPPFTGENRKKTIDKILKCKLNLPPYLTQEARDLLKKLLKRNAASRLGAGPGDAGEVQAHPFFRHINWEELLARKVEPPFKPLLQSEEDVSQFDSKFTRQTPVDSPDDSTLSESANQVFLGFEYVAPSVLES
Experimental: (§1) Inhibition of Akt3 and p70S6K activity was determined using the IMAP™ FP Progressive Binding Kit (Molecular Devices product number R8127). […] Following the pre-incubation, 30 μM ATP was added to initiate the reaction. After 60 minutes at RT, Molecular Devices IMAP™ binding solution was added to bind phosphorylated substrate. After 30 minutes of incubation in the presence of the IMAP™ beads the fluorescence polarization was read and the ratio was reported as mP. IC50 results were calculated using the Prism software from Graphpad. The Ki values were determined according to the following formula: Ki=IC50/(1+([ATP Challenge]/EC50 ATP)).

[1] = Compound plasma concentrations in unsensitized mice at 15 min post administration; format: in vivo, mouse; details: for Mouse Oral PK: mean plasma concentration in mice, 15 minutes post oral administration; for Plasma Mean Concentration: mice, 15 min post administration, mean n = 3 mice
Experimental: Test compounds were formulated in water or 1% polysorbate 80 and dosed at 15 μmmol/kg for intraperitoneal (IP) or oral (PO) administration or formulated for intratracheal (IT) administration and dosed at 5 μmmol/kg, which directly targets the lungs. Following completion of the in vivo study, mice were euthanized and blood and plasma collected approximately 2.5-3 hours post administration of test compound for bronchodialator (BD) studies and 24 hours post administration for anti-inflamatory (AI) studies. […] Both plasma samples and lung extracts were assayed for compound concentrations using an on-line, solid phase extraction LC/MS/MS system.

[2] = Rat oral pharmacokinetics (plasma); format: in vivo; details: rat oral PK, mean n = 3 rats, 20-30 μmmol/kg
Experimental: Plasma (EDTA K2 anticoagulant) was collected from male, cannulated, CD Sprague Dawley rats to determine the pharmacokinetics of formulations containing compound inhibitors of Rho kinase. Each animal was dosed orally with a 4 ml/kg solution or suspension of each test compound in 10 mM acetate buffered saline, pH 4.5 at a final concentration range of 20-30 μmmol/kg. Blood was collected at 0.25, 0.5, 1, 2, 4, 6, 8, and 24 hours. Plasma samples were assayed for the concentration of the test compound using an on-line, solid phase extraction LC/MS/MS analysis system.
Samples were analyzed on a QSTAR Elite, hybrid quadrupole time-of-flight mass spectrometer (Applied Biosystems, Framingham, Mass.) coupled with a Symbiosis Pharma integrated, on-line SPE-HPLC system (Spark Holland Inc., Plainsboro, N.J.). Analyst QS 2.0 software was used for instrument control, data acquisition and processing. […] Mobile Phase A consisted of 0.1% ammonium hydroxide in water and Mobile Phase B consisted of 0.1% formic acid in acetonitrile. Pharmacokinetic analyses were performed using WinNonlin software version 5.2 (Pharsight Corporation, Mountain View, Calif.).
As determined from the plasma concentration versus time curves, the time to peak and peak exposure are represented by the values Tmax and Cmax, respectively. The AUC values (nM*hr) shown were calculated as the areas under the plasma concentration versus time curves from time zero through the time of the last observable value and represent the total exposure of the compound over the course of the study. Half-life values or the amount of time required for the plasma levels of the compound to decline to half the initial value are represented as t1/2.

[3] = test system: ova-sensitized, ova-challenged mice; test: Mouse ovalbumin sensitization model: eosinophils in BALF; format: in vivo; details: dosed orally once a day, day 27 to day 31; FIG. 4
Experimental: Male BALB/c mice were ordered from Charles River Laboratories (Raleigh, N.C.). The animals were approximately 19 to 21 grams at time of receipt. Upon arrival, the animals were randomized into groups of five males per cage and assigned to a dosing group. Animals were quarantined for 7 days under test conditions. They were observed daily for general health status and ability to adapt to the water bottles. Animals were sensitized on day 0 and 14 of study by an intraperitoneal injection with 20 μg of ovalbumin (ova) and 2.0 mg aluminum hydroxide (alum) which initiates the development of a specific T-helper (Th) cells type 2 resulting in asthmatic animals (denoted as Ova in the figures). One group of animals received an injection of saline to use as control animals (denoted as normal in the figures). All animals were challenged with aerosolized 1% ova once daily for 25 minutes on days 28, 29, and 30 (Zosky, et al. Respiratory Research. 2004; 5:15). Aerosol challenge consists of using an Aerogen Aeroneb nebulizer and controller with a particle size of 4-6 μm mass median aerodynamic diameter (MMAD) with a distribution of 400 μl per minute. This aerosol challenge is necessary to target the Th2-driven allergic inflammation in the lower airways. […]
Bronchoalveolar lavage fluid (BALF) was collected by infusing 3.0 ml of saline with 10% fetal calf serum into the lungs via the trachea and then withdrawing the fluid. The total amount of cells/ml of BALF fluid was determined via manual cell count on hemocytometer. The BALF was centrifuged, supernatant removed and analyzed for cytokine concentrations as described below, and cell pellet reconstituted in 500 μL of fluid. […] Following Hema3 stain, relative percentages of individual leukocytes were determined on a 200 cell count for each sample. The final concentration of individual leukocyte cell types per ml of BALF was determined by multiplication of the relative percentage of individual leukocytes with the total amount of cells/ml of BALF fluid.

[4] = test system: ova-sensitized, ova-challenged mice; test: Prevention of airway hyperreactivity (Penh, methacholine) in mouse ovalbumin model; format: in vivo; details: days 27 to 31; for airway hyperreactivity: intratracheal once a day
Experimental: The anti-inflammatory dosing paradigm consists of dosing the animals once a day starting on day 27 and finishing on either day 30 or 31 (1 hr prior to the aerosolized ovalbumin challenges on days 28 to 30) but not on day 32 when hyperreactivity evaluation occurs. […] Exposure to the methacholine doses consisted of a 3 minute period during which a nebulizer was aerosolizing the methacholine and an additional 3 minute period following the cessation of nebulization. […] Enhanced pause (Penh), a unitless index of airway hyperreactivity, is derived from the expiratory side of the respiratory waveform measured via the plethysmograph and is used as an indirect measure of airway resistance and hyperreactivity. […] Following the methacholine dose response, BALF was collected and all animals were anesthetized, bled and euthanized. […] The Penh value at each of the dose levels of methacholine represents the 6-minute average response. Change from baseline (CFB) in Penh was calculated at each methacholine dose and the area under the curve (AUC) for these CFB values was calculated using the trapezoidal rule. This same approach was applied for each mouse across multiple experiments. […] Data from equal experimental conditions across experiments performed on different days were pooled for statistical analysis and data reporting. […] A random intercept for each experiment was assumed to account for possible similarities of the results obtained from a given experiment (i.e., as a “blocking effect”). […] For FIG. 9, linear AUC values from compound treated mice were reported as a percent of linear AUC values from vehicle-treated ovalbumin-sensitized/ovalbumin-challenged (asthmatic) mice.

ERK2 = target: T2, ERK2 (Homo sapiens, UniProt P28482); test: Kinase panel screen (KinaseProfiler): ERK2; format: biochemical; details: 10 μM ATP, read-out: Percent inhibition ERK2; for activity at 1 µM: 1 μM test compound; for activity at 10 µM: 10 μM test compound
T2 construct: purchased Upstate, Millipore Bioscience Division (KinaseProfiler service)
T2 sequence (P28482 whole entry): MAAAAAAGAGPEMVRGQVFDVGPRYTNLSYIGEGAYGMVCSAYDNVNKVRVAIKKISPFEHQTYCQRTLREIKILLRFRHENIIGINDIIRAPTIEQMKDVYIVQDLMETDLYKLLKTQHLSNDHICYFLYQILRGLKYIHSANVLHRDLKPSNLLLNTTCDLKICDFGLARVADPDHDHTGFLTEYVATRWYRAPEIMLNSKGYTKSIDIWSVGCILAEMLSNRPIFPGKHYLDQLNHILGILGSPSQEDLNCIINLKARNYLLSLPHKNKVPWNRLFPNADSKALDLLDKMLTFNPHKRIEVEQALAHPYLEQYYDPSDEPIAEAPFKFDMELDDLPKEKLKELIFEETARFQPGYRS
Experimental: Compounds of Formulae I and II were examined for activity against a selected panel of kinases using the KinaseProfiler™ enzyme profiling services (Upstate, Millipore Bioscience Division). Percent kinase activity at 10 μM and 1 μM test compound and 10 μM ATP was determined against 40 wild-type recombinant human kinases according to Upstate's standard protocol: ASK1, BTK, CSK, c-RAF, GCK, GSK3β, IKKα, IKKβ, IRAK1, IRAK4, JNK1α1, JNK2α2, JNK3, ERK1, ERK2, MAPKAP-K2, MAPKAP-K3, MEK1, MKK4, MKK6, MKK7β, Mnk2, MSK1, PAK3, PDK1, PRAK, ROCK1, Rsk2, SAPK2a, SAPK2b, SAPK3, SAPK4, SRPK1, SRPK2, Syk, TAK1, TBK1, PI3-Kβ, PI3-Kγ, PI3-Kδ.

ROCK2 = target: T3, ROCK2 (Homo sapiens, UniProt O75116); test: Rho kinase inhibition assay (IMAP), ROCK2; format: biochemical; details: average
T3 construct: purchased Upstate/Chemicon 14-451
T3 sequence (O75116 11-552 limits assumed): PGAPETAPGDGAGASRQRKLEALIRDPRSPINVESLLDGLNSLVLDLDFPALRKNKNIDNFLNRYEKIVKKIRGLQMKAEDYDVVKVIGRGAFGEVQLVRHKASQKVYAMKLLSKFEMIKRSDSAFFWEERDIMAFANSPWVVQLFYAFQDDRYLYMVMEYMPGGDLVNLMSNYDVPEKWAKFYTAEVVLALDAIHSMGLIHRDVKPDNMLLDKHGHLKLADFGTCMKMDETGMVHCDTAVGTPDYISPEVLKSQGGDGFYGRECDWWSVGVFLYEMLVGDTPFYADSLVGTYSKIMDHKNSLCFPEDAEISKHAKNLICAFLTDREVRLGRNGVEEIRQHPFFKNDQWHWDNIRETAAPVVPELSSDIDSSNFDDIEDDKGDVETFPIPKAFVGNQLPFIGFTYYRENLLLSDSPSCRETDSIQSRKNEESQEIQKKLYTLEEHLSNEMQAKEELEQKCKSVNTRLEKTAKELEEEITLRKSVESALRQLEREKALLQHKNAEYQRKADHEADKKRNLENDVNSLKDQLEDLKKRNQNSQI
Experimental: Following the pre-incubation, 10 μM ATP was added to initiate the reaction. After 60 minutes at room temperature, Molecular Devices IMAP™ binding solution was added to bind phosphorylated substrate. After 30 minutes of incubation in the presence of the IMAP™ beads, the fluorescence polarization was read and the ratio was reported as mP. IC50 values for compounds and EC50 values for ATP were calculated using the Prism software from Graphpad.

[5] = test system: IL-1β secretion from LPS-stimulated human monocytes; test: Human monocyte cytokine secretion assay (LPS): IL-1β; format: cell-based; details: average percent of stimulated secretion from human monocytes, 10 μM test compound
Experimental: (§2) Peripheral blood from healthy human volunteers was collected and the monocytes isolated via Ficoll-paque density centrifugation. […] The cells were allowed to pre-incubate with test compound at the indicated concentration for 30 minutes (37° C., 5% CO2, humidified air); after which the supernatant was removed and media containing compound and 1 ng/mL LPS was added. Cells were allowed to incubate with compounds and LPS for 4 hours at 37° C. after which the supernatant was removed and stored at −80° C. Cytokine concentrations in the supernatant were determined using commercially available Bio-Rad Bio-plex™ kits according the manufacturer's instructions.

[6] = test system: IL-6 secretion from LPS-stimulated human monocytes; test: Human monocyte cytokine secretion assay (LPS): IL-6; format: cell-based; details: average percent of stimulated secretion from human monocytes, 10 μM test compound
Experimental: as §2

[7] = test system: TNF-α secretion from LPS-stimulated human monocytes; test: Human monocyte cytokine secretion assay (LPS): TNF-α; format: cell-based; details: average percent of stimulated secretion from human monocytes, 10 μM test compound
Experimental: as §2

[8] = test system: A-10 rat thoracic aorta cells; test: PDGF-stimulated smooth muscle cell proliferation assay (BrdU); format: cell-based; details: for Proliferation at 10 μM: 10 μM test compound
Experimental: Effects on cell proliferation were measured using a bromodeoxyuridine (BrdU) incorporation assay. […] Serum free media containing 0.1% BSA was added to the cells. 24 hours later the media was removed and replaced with warmed serum free media. […] Proliferation was then monitored using the BrdU Cell Proiferation Assay, HTS (Calbiochem cat. #HTS01). BrdU was allowed to incorporate into cells for 24 hours prior to the addition of fixative/denaturing solution and the fluorometric detection of incorporated BrdU using a BrdU antibody as per manufacturer's directions. Data are reported as a percent of the PDGF-stimulated BrdU incorporation.

Akt3 = target: T4, Akt3 (Homo sapiens, UniProt Q9Y243); test: Akt3 inhibition assay (IMAP); format: biochemical; details: IMAP FP assay, 30 μM ATP; average
T4 construct: purchased Upstate Chemicon 14-502
T4 sequence (Q9Y243 whole entry): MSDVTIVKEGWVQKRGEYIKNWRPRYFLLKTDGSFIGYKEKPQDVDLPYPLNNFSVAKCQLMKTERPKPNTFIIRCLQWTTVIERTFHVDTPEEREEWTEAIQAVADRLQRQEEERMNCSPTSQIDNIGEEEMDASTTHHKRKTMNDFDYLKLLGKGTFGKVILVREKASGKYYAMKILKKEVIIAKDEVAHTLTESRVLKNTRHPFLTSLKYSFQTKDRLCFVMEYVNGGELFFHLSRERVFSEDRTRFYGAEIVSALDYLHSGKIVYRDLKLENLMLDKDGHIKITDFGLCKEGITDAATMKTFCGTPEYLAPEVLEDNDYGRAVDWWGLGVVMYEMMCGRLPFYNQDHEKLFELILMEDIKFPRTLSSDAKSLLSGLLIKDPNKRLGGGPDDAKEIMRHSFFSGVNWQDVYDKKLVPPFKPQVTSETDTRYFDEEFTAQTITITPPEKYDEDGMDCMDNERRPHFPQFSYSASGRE
Experimental: as §1

LPS-challenged mice = test: LPS-induced cytokine production assay (IL-1β in BALF); format: in vivo, mouse; details: intratracheal, one hour prior to LPS challenge; BALF four hours after; FIG. 13
Experimental: Male BALB/c mice, approximately 19 to 21 grams, were ordered from Charles River Laboratories (Raleigh, N.C.). All animals were challenged with aerosolized LPS (10 μg/ml) for 25 minutes on study day 0. LPS aerosol was generated using an Aerogen Aeroneb nebulizer and controller providing a flow of 400 μl/min and a particle size of 2-4 μm MMAD. Rolipram was administered i.p at 20 mg/kg. […] Total cell counts were determined using the Coulter Counter. For differential evaluations, BALF was centrifuged and cytospin slides prepared and stained […]. Manual leukocyte counts were then completed on 200 cells. The final concentration of individual leukocyte cell types per ml of BALF was determined by multiplication of the relative percentage of individual leukocytes with the total amount of cells/ml of BALF fluid. The concentration of IL-1β in the BALF samples was determined using commercially available Bio-plex kits (Bio-Rad).

[9] = IMAP FP assay, 30 μM ATP, read-out: p70S6K Ki, Avg
[10] = IMAP assay, 10 μM ATP, read-out: ROCK2 Ki, Avg
[11] = average percent of PDGF stimulated proliferation

SMILES: COc1ccc(CN2CCC[C@H](Nc3ccc4[nH]ncc4c3)C2)cc1 [Compound 1.079]
Ki (p70S6K; [9]): 3010 nM
Ki (p70S6K; read-out: p70S6K Ki): 3010 nM
Mouse Oral PK [1]: 2443 nM
Plasma Mean Concentration [1]: 2442.5 nM

Vz_F [2]: 19.0 L/kg
SMILES: OCCOc1cccc(CN2CCC[C@@H](Nc3ccc4[nH]ncc4c3)C2)c1 [Compound 1.092]

SMILES: c1cc2cc(CN3CCC[C@@H](Nc4ccc5[nH]ncc5c4)C3)ccc2o1 [Compound 1.131]
eosinophils per ml of BALF [3]: reduced
airway hyperreactivity to methacholine on Day 32 ([4]; oral 15 μMol/kg once a day): prevention of airway hyperreactivity

AUC (0-last) [2]: BLQ
Cmax [2]: BLQ
Tmax [2]: BLQ
Vz_F [2]: BLQ
t½ [2]: BLQ
SMILES: CCc1ccc(CN2CCC[C@@H](Nc3ccc4[nH]ncc4c3)C2)cc1 [Compound 1.136]

activity at 1 µM (ERK2): 104%
activity at 10 µM (ERK2): 92%
SMILES: Cc1ccc(CN2CCC[C@@H](Nc3ccc4[nH]ncc4c3)C2)cc1OCCO [Compound 1.161]
airway hyperreactivity [4]: prevention of airway hyperreactivity

SMILES: NC(=O)COc1cccc(CN2CCC[C@H](Nc3ccc4[nH]ncc4c3)C2)c1 [Compound 1.195]
Ki (p70S6K; [9]): 2730 nM
Ki (p70S6K; read-out: p70S6K Ki): 2730 nM
Mouse Oral PK [1]: 108 nM
Plasma Mean Concentration [1]: 107.9 nM

SMILES: Cc1ccc(CN2CCC[C@H](Nc3ccc4[nH]ncc4c3)C2)cc1NS(=O)(=O)N(C)C [Compound 1.237]
Ki (ROCK2; [10]): 4 nM
Ki (ROCK2; read-out: ROCK2 Ki): 4 nM
IL-1β [5]: 97.1%
IL-6 [6]: 100.9%
TNF-α [7]: 70.6%
Percent of PDGF Induced Proliferation at 1 μM Avg ([8]; 1 μM, 10 ng/mL PDGF): 63.5%
Percent of PDGF Induced Proliferation at 10 μM Avg ([8]; 10 μM, 10 ng/mL PDGF): 51.4%
Proliferation at 1 μM ([8]; average percent of PDGF stimulated proliferation, 1 μM test compound): 63.5%
Proliferation at 10 μM [8, 11]: 51.4%
Ki (Akt3): 7910 nM

SMILES: Cc1ccc(CN2CCC[C@@H](Nc3ccc4[nH]ncc4c3)C2)cc1NS(=O)(=O)N(C)C [Compound 1.262]
Ki (ROCK2; [10]): 4 nM
Ki (ROCK2; read-out: ROCK2 Ki): 4 nM
IL-1β [5]: 145.7%
IL-6 [6]: 156.6%
TNF-α [7]: 135.3%
Ki (Akt3): 861 nM

SMILES: CSc1ccc(CN2CC[C@@H](Nc3cccc4cnccc34)C2)cc1 [Compound 2.026]
Proliferation at 10 μM [8, 11]: 52.0%
AUC (0-last) [2]: BLQ
Cmax [2]: BLQ
Tmax [2]: BLQ
Vz_F [2]: BLQ
t½ [2]: BLQ

SMILES: NC(=O)Cn1ccc2cc(CN3CC[C@@H](Nc4cccc5cnccc45)C3)ccc21 [Compound 2.059]
airway hyperreactivity [4]: prevention of airway hyperreactivity
IL-1β in BALF (LPS-challenged mice): reduction
activity at 1 µM (ERK2): 56%
activity at 10 µM (ERK2): 12%

activity at 10 µM (ERK2): 12%
SMILES: OCCn1ccc2cc(CN3CC[C@@H](Nc4cccc5cnccc45)C3)ccc21 [Compound 2.066]
airway hyperreactivity [4]: prevention of airway hyperreactivity
